target: T1, recombinant guanylate cyclase reporter cell line (Rattus norvegicus, UniProt P19686+P20595); experiment: Effect on a recombinant guanylate cyclase reporter cell line; assay type: cell-based; settings: MEC = minimum effective concentration; in some cases mean values for individual determinations
T1 construct: expressed in transfected cells
T1 sequence (P19686 1-690): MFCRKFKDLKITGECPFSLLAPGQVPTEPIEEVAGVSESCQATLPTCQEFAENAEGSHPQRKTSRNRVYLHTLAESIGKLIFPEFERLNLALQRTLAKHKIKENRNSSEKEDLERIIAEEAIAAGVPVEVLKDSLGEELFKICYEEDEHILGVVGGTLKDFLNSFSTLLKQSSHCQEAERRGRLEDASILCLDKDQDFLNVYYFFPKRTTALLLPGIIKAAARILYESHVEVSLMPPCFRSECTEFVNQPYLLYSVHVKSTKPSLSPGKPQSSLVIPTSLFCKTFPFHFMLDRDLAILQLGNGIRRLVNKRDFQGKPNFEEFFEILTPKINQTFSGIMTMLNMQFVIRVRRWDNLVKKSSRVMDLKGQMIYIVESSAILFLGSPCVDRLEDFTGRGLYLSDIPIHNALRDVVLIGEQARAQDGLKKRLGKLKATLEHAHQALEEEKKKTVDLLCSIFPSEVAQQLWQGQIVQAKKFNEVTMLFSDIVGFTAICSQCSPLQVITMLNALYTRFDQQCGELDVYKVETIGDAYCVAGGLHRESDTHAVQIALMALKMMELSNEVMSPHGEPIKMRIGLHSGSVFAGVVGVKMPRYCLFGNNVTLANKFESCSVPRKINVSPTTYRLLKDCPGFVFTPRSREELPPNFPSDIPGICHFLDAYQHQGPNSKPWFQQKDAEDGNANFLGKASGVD
T1 sequence (P20595 1-619): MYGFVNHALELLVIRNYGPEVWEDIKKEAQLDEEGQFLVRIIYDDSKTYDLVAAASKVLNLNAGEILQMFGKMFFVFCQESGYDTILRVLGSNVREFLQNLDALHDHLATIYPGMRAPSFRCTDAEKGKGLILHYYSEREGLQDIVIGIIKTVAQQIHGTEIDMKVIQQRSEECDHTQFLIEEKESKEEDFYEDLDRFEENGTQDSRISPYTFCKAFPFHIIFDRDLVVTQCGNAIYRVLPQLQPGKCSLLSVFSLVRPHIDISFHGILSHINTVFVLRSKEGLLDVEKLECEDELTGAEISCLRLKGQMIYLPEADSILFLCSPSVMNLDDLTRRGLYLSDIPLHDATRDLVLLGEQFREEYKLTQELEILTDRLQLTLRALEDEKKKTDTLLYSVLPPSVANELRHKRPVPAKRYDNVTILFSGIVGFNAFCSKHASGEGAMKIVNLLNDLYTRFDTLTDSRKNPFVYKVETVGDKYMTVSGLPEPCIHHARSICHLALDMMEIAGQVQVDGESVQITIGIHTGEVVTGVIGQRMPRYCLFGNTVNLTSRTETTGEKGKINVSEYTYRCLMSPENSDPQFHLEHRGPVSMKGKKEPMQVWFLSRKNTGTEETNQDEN
Method in brief: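 Compounds tested in a recombinant guanylate cyclase reporter cell line per a published method. Potency expressed as minimum effective concentration (MEC), sometimes as mean of individual determinations.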

| SMILES | MEC [µM] |
| --- | --- |
| Cc1nc2c(OCc3c(F)cccc3F)cccn2c1C(=O)Nc1nccs1 [Example 145, 8-[(2,6-difluorobenzyl)oxy]-2-methyl-N-(1,3-thiazol-2-yl) imidazo[1,2-a]pyridine-3-carboxamide] | 3.0 |
| Cc1cnc(NC(=O)c2c(C)nc3c(OCc4c(F)cccc4F)cccn23)s1 [Example 146, 8-[(2,6-difluorobenzyl)oxy]-2-methyl-N-(5-methyl-1,3-thiazol-2-yl)imidazo[1,2-a]pyridine-3-carboxamide] | 3.0 |
| CCn1nc(C)c(NC(=O)c2c(C)nc3c(OCCC(C(F)(F)F)C(F)(F)F)cc(C)cn23)c1C [Example 147, N-(1-Ethyl-3,5-dimethyl-1H-pyrazol-4-yl)-2,6-dimethyl-8-[4,4,4-trifluoro-3-(trifluoromethyl)butoxy]imidazo[1,2-a]pyridine-3-carboxamide] | 3.0 |
| Cc1cc(OCCC(C(F)(F)F)C(F)(F)F)c2nc(C)c(C(=O)Nc3c(C)nn(Cc4ccccc4F)c3C)n2c1 [Example 148] | 1.0 |
| Cc1cc(OCCC(C(F)(F)F)C(F)(F)F)c2nc(C)c(C(=O)Nc3c(C)n[nH]c3C(F)(F)F)n2c1 [Example 149, 2,6-dimethyl-N-[3-methyl-5-(trifluoromethyl)-1H-pyrazol-4-yl]-8-[4,4,4-trifluoro-3-(trifluoromethyl)butoxy]imidazo[1,2-a]pyridine-3-carboxamide] | 2.0 |
| Cc1nc2c(OCC3CCCCC3)cccn2c1C(=O)Nc1cccc(CCC(=O)O)c1 [Example 150, 3-[3-({[8-(Cyclohexylmethoxy)-2-methylimidazo[1,2-a]pyridin-3-yl]carbonyl}amino)phenyl]propanoic acid] | 1.0 |
| Cc1cc(OCC2CC(F)(F)C2)c2nc(C)c(C(=O)Nc3c(C)n[nH]c3C(F)(F)F)n2c1 [Example 151, 8-[(3,3-Difluorocyclobutyl)methoxy]-2,6-dimethyl-N-[3-methyl-5-(trifluoromethyl)-1H-pyrazol-4-yl]imidazo[1,2-a]pyridine-3-carboxamide] | 3.0 |
| Cc1cc(OCc2c(F)cccc2F)c2nc(C)c(C(=O)Nc3cccc(S(C)(=O)=O)c3)n2c1 [Example 152, 8-[(2,6-Difluorobenzyl)oxy]-2,6-dimethyl-N-[3-(methylsulphonyl)phenyl]imidazo[1,2-a]pyridine-3-carboxamide] | 1.0 |
| Cc1cc(OCc2c(F)cccc2F)c2nc(C)c(C(=O)Nc3cccc(NS(C)(=O)=O)c3)n2c1 [Example 153, 8-[(2,6-Difluorobenzyl)oxy]-2,6-dimethyl-N-{3-[(methylsulphonyl)amino]phenyl}imidazo[1,2-a]pyridine-3-carboxamide] | 3.0 |
| Cc1nn(S(C)(=O)=O)c(C)c1NC(=O)c1c(C)nc2c(OCc3c(F)cccc3F)cccn12 [Example 154, 8-[(2,6-Difluorobenzyl)oxy]-N-[3,5-dimethyl-1-(methylsulphonyl)-1H-pyrazol-4-yl]-2-methylimidazo[1,2-a]pyridine-3-carboxamide] | 1.0 |

Reference: patent US20160362408A1 (Bayer Pharma Aktiengesellschaft, priority 2013, published 2016)
